# Laboratory results reported in PMC6528465 (ACS infectious diseases, 2018).
# Tested on: Mtb K204
# Type: cell-based, Mycobacterium tuberculosis
# Details: no inhibitor
smiles,measurement,value
"NC[C@H]1O[C@H](O[C@H]2[C@H](O)[C@@H](O[C@H]3O[C@H](CO)[C@@H](O)[C@H](N)[C@H]3O)[C@H](N)C[C@@H]2N)[C@H](O)[C@@H](O)[C@@H]1O [KAN, kanamycin]",K204 MICKAN,>10 µg/mL
